These compounds were tested on 935938-334-R-J1-PDC complex spheroid viability (assay: Anticancer human tumor 935938-334-R-J1-PDC patient-derived small intestine adenocarcinoma cell line growth inhibition [POLQ]). Details: second compound 0.1 µM; first compound 0.316 µM; hits give low values.
Summary of the method: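 Patient-derived tumour cells were co-cultured with HUVEC and mesenchymal stem cells as multicellular spheroids at 37 °C. They were treated with POLQ inhibitors (novobiocin, ART-558, RP6685) alone or combined with other agents. Top concentrations were at or near clinical Cmax (otherwise 10 microM; SN-38 at 1 microM), decreasing in half-log steps.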
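Also: spheroids exposed to drugs for seven days before viability read; 100% = DMSO vehicle control wells.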

SMILES | viability, T/C
C=CCn1c(=O)c2cnc(Nc3ccc(N4CCN(C)CC4)cc3)nc2n1-c1cccc(C(C)(C)O)n1 + COC1C(OC(N)=O)C(O)C(Oc2ccc3c(O)c(NC(=O)c4ccc(O)c(CC=C(C)C)c4)c(=O)oc3c2C)OC1(C)C | 71.4%
O=C(Nc1ccc(O)c(NS(=O)(=O)c2ccc(F)cc2)c1)c1ccc(-c2ccccc2)cc1 + Nc1ccc(C#CCN(C(=O)Cc2ncc(C(F)(F)F)cc2C(F)(F)F)c2ccc(F)cc2)nn1 | 91.3%
C=CC(=O)N1CCN(c2nc(=O)n(-c3c(C)ccnc3C(C)C)c3nc(-c4c(O)cccc4F)c(F)cc23)C(C)C1 (configuration not stated) + Nc1ccc(C#CCN(C(=O)Cc2ncc(C(F)(F)F)cc2C(F)(F)F)c2ccc(F)cc2)nn1 | 91.2%

Same assay, conditions: second compound 0.1 µM; first compound 1 µM; hits give low values

SMILES | viability, T/C
CCc1c2c(nc3ccc(O)cc13)-c1cc3c(c(=O)n1C2)COC(=O)[C@]3(O)CC + Nc1ccc(C#CCN(C(=O)Cc2ncc(C(F)(F)F)cc2C(F)(F)F)c2ccc(F)cc2)nn1 | 32%
COc1ccc([C@@H](O)c2cc(-c3ncnc4cc(N5CCOCC5)ccc34)c(F)cc2Cl)nn1 + Nc1ccc(C#CCN(C(=O)Cc2ncc(C(F)(F)F)cc2C(F)(F)F)c2ccc(F)cc2)nn1 | 109%
C=CCn1c(=O)c2cnc(Nc3ccc(N4CCN(C)CC4)cc3)nc2n1-c1cccc(C(C)(C)O)n1 + COC1C(OC(N)=O)C(O)C(Oc2ccc3c(O)c(NC(=O)c4ccc(O)c(CC=C(C)C)c4)c(=O)oc3c2C)OC1(C)C | 32.1%
O=C(Nc1ccc(O)c(NS(=O)(=O)c2ccc(F)cc2)c1)c1ccc(-c2ccccc2)cc1 + Nc1ccc(C#CCN(C(=O)Cc2ncc(C(F)(F)F)cc2C(F)(F)F)c2ccc(F)cc2)nn1 | 106%
C=CC(=O)N1CCN(c2nc(=O)n(-c3c(C)ccnc3C(C)C)c3nc(-c4c(O)cccc4F)c(F)cc23)C(C)C1 (configuration not stated) + Nc1ccc(C#CCN(C(=O)Cc2ncc(C(F)(F)F)cc2C(F)(F)F)c2ccc(F)cc2)nn1 | 138%

Same assay, conditions: second compound 0.1 µM; first compound 3.16 µM; hits give low values

SMILES | viability, T/C
COc1ccc([C@@H](O)c2cc(-c3ncnc4cc(N5CCOCC5)ccc34)c(F)cc2Cl)nn1 + Nc1ccc(C#CCN(C(=O)Cc2ncc(C(F)(F)F)cc2C(F)(F)F)c2ccc(F)cc2)nn1 | 73.7%
O=C(Nc1ccc(O)c(NS(=O)(=O)c2ccc(F)cc2)c1)c1ccc(-c2ccccc2)cc1 + Nc1ccc(C#CCN(C(=O)Cc2ncc(C(F)(F)F)cc2C(F)(F)F)c2ccc(F)cc2)nn1 | 104%
C=CC(=O)N1CCN(c2nc(=O)n(-c3c(C)ccnc3C(C)C)c3nc(-c4c(O)cccc4F)c(F)cc23)C(C)C1 (configuration not stated) + Nc1ccc(C#CCN(C(=O)Cc2ncc(C(F)(F)F)cc2C(F)(F)F)c2ccc(F)cc2)nn1 | 122%

Same assay, conditions: second compound 0.1 µM; first compound 10 µM; hits give low values

SMILES | viability, T/C
COc1ccc([C@@H](O)c2cc(-c3ncnc4cc(N5CCOCC5)ccc34)c(F)cc2Cl)nn1 + Nc1ccc(C#CCN(C(=O)Cc2ncc(C(F)(F)F)cc2C(F)(F)F)c2ccc(F)cc2)nn1 | 29.4%
O=C(Nc1ccc(O)c(NS(=O)(=O)c2ccc(F)cc2)c1)c1ccc(-c2ccccc2)cc1 + Nc1ccc(C#CCN(C(=O)Cc2ncc(C(F)(F)F)cc2C(F)(F)F)c2ccc(F)cc2)nn1 | 79%
C=CC(=O)N1CCN(c2nc(=O)n(-c3c(C)ccnc3C(C)C)c3nc(-c4c(O)cccc4F)c(F)cc23)C(C)C1 (configuration not stated) + Nc1ccc(C#CCN(C(=O)Cc2ncc(C(F)(F)F)cc2C(F)(F)F)c2ccc(F)cc2)nn1 | 107%

Same assay, conditions: second compound 0.316 µM; first compound 0.000316 µM; hits give low values

SMILES | viability, T/C
Cn1ncnc1[C@H]1c2n[nH]c(=O)c3cc(F)cc(c23)N[C@@H]1c1ccc(F)cc1 + COC1C(OC(N)=O)C(O)C(Oc2ccc3c(O)c(NC(=O)c4ccc(O)c(CC=C(C)C)c4)c(=O)oc3c2C)OC1(C)C | 94.7%

Same assay, conditions: second compound 0.316 µM; first compound 0.001 µM; hits give low values

SMILES | viability, T/C
Cn1ncnc1[C@H]1c2n[nH]c(=O)c3cc(F)cc(c23)N[C@@H]1c1ccc(F)cc1 + COC1C(OC(N)=O)C(O)C(Oc2ccc3c(O)c(NC(=O)c4ccc(O)c(CC=C(C)C)c4)c(=O)oc3c2C)OC1(C)C | 73.8%

Same assay, conditions: second compound 0.316 µM; first compound 0.00316 µM; hits give low values

SMILES | viability, T/C
Cn1ncnc1[C@H]1c2n[nH]c(=O)c3cc(F)cc(c23)N[C@@H]1c1ccc(F)cc1 + COC1C(OC(N)=O)C(O)C(Oc2ccc3c(O)c(NC(=O)c4ccc(O)c(CC=C(C)C)c4)c(=O)oc3c2C)OC1(C)C | 97.6%
CCc1c2c(nc3ccc(O)cc13)-c1cc3c(c(=O)n1C2)COC(=O)[C@]3(O)CC + Nc1ccc(C#CCN(C(=O)Cc2ncc(C(F)(F)F)cc2C(F)(F)F)c2ccc(F)cc2)nn1 | 108%
C=CCn1c(=O)c2cnc(Nc3ccc(N4CCN(C)CC4)cc3)nc2n1-c1cccc(C(C)(C)O)n1 + COC1C(OC(N)=O)C(O)C(Oc2ccc3c(O)c(NC(=O)c4ccc(O)c(CC=C(C)C)c4)c(=O)oc3c2C)OC1(C)C | 126%

Same assay, conditions: second compound 0.316 µM; first compound 0.01 µM; hits give low values

SMILES | viability, T/C
Cn1ncnc1[C@H]1c2n[nH]c(=O)c3cc(F)cc(c23)N[C@@H]1c1ccc(F)cc1 + COC1C(OC(N)=O)C(O)C(Oc2ccc3c(O)c(NC(=O)c4ccc(O)c(CC=C(C)C)c4)c(=O)oc3c2C)OC1(C)C | 115%
CCc1c2c(nc3ccc(O)cc13)-c1cc3c(c(=O)n1C2)COC(=O)[C@]3(O)CC + Nc1ccc(C#CCN(C(=O)Cc2ncc(C(F)(F)F)cc2C(F)(F)F)c2ccc(F)cc2)nn1 | 65.8%
C=CCn1c(=O)c2cnc(Nc3ccc(N4CCN(C)CC4)cc3)nc2n1-c1cccc(C(C)(C)O)n1 + COC1C(OC(N)=O)C(O)C(Oc2ccc3c(O)c(NC(=O)c4ccc(O)c(CC=C(C)C)c4)c(=O)oc3c2C)OC1(C)C | 96.7%

Same assay, conditions: second compound 0.316 µM; first compound 0.0316 µM; hits give low values

SMILES | viability, T/C
Cn1ncnc1[C@H]1c2n[nH]c(=O)c3cc(F)cc(c23)N[C@@H]1c1ccc(F)cc1 + COC1C(OC(N)=O)C(O)C(Oc2ccc3c(O)c(NC(=O)c4ccc(O)c(CC=C(C)C)c4)c(=O)oc3c2C)OC1(C)C | 103%
CCc1c2c(nc3ccc(O)cc13)-c1cc3c(c(=O)n1C2)COC(=O)[C@]3(O)CC + Nc1ccc(C#CCN(C(=O)Cc2ncc(C(F)(F)F)cc2C(F)(F)F)c2ccc(F)cc2)nn1 | 35.1%
COc1ccc([C@@H](O)c2cc(-c3ncnc4cc(N5CCOCC5)ccc34)c(F)cc2Cl)nn1 + Nc1ccc(C#CCN(C(=O)Cc2ncc(C(F)(F)F)cc2C(F)(F)F)c2ccc(F)cc2)nn1 | 106%
C=CCn1c(=O)c2cnc(Nc3ccc(N4CCN(C)CC4)cc3)nc2n1-c1cccc(C(C)(C)O)n1 + COC1C(OC(N)=O)C(O)C(Oc2ccc3c(O)c(NC(=O)c4ccc(O)c(CC=C(C)C)c4)c(=O)oc3c2C)OC1(C)C | 80.4%
O=C(Nc1ccc(O)c(NS(=O)(=O)c2ccc(F)cc2)c1)c1ccc(-c2ccccc2)cc1 + Nc1ccc(C#CCN(C(=O)Cc2ncc(C(F)(F)F)cc2C(F)(F)F)c2ccc(F)cc2)nn1 | 112%
C=CC(=O)N1CCN(c2nc(=O)n(-c3c(C)ccnc3C(C)C)c3nc(-c4c(O)cccc4F)c(F)cc23)C(C)C1 (configuration not stated) + Nc1ccc(C#CCN(C(=O)Cc2ncc(C(F)(F)F)cc2C(F)(F)F)c2ccc(F)cc2)nn1 | 106%

Same assay, conditions: second compound 0.316 µM; first compound 0.1 µM; hits give low values

SMILES | viability, T/C
Cn1ncnc1[C@H]1c2n[nH]c(=O)c3cc(F)cc(c23)N[C@@H]1c1ccc(F)cc1 + COC1C(OC(N)=O)C(O)C(Oc2ccc3c(O)c(NC(=O)c4ccc(O)c(CC=C(C)C)c4)c(=O)oc3c2C)OC1(C)C | 89.5%
CCc1c2c(nc3ccc(O)cc13)-c1cc3c(c(=O)n1C2)COC(=O)[C@]3(O)CC + Nc1ccc(C#CCN(C(=O)Cc2ncc(C(F)(F)F)cc2C(F)(F)F)c2ccc(F)cc2)nn1 | 36.2%
COc1ccc([C@@H](O)c2cc(-c3ncnc4cc(N5CCOCC5)ccc34)c(F)cc2Cl)nn1 + Nc1ccc(C#CCN(C(=O)Cc2ncc(C(F)(F)F)cc2C(F)(F)F)c2ccc(F)cc2)nn1 | 106%
C=CCn1c(=O)c2cnc(Nc3ccc(N4CCN(C)CC4)cc3)nc2n1-c1cccc(C(C)(C)O)n1 + COC1C(OC(N)=O)C(O)C(Oc2ccc3c(O)c(NC(=O)c4ccc(O)c(CC=C(C)C)c4)c(=O)oc3c2C)OC1(C)C | 128%

Source: PubChem BioAssay AID1963829 (Molecular Pharmacology Branch, DTP, NCI, 2024)
